The values below come from patent US9682925B2, “Cyclopropaneamine compound” (TAKEDA PHARMACEUTICAL COMPANY LIMITED, priority 2011, dated 2017).

Where a name gives a salt, the structure may show the parent alone.

A word on the IC50: it is the midpoint of a concentration-inhibition curve.

Holding throughout (format): biochemical
In one test the target is T1, human LSD1(171-852) (Homo sapiens, UniProt O60341).
T1 construct: to give hLSD1(171-852) purified product; made in house; host or cells: Escherichia coli C43(DE3) pLysS
Nature of the test: Measurement of LSD1 inhibitory activity (time-resolved fluorescence, biotin-histone H3 mono methylated K4 peptide). Conditions: read-out: LSD1 IC50 value. As for the experimental part:
When the turbidity reached 600 Klett units, the culture temperature was changed to 16° C., IPTG having a final concentration of 0.5 mM was added to induce expression, and the cells were cultured further for 21 hr. The culture medium was centrifuged at 9,000 g for 10 min, and Escherichia coli pellets were recovered.
Escherichia coli pellets in 9 L of the culture medium were suspended in 1340 mL of an extraction buffer (PBS, 5% (V/V) Glycerol), and 6700 units of Benzonase (Merck) were added. Using Branson ultrasonic disintegrator, the suspension was disrupted by ultrasonication for 3 min, and centrifuged at 33,000 g for 20 min, and the supernatant was recovered.
(5) Measurement of LSD1 Inhibitory Activity
After reaction at room temperature for 20 min, 1 mM 2-PCPA solution (5 μL) was added to terminate the reaction. A detection solution (800 mM potassium fluoride, 0.1% BSA) containing europium-labeled antihistone H3 antibody (Wako Pure Chemical Industries, Ltd.) and Streptavidin-XL665 (Cisbio) was further added by 5 μL, and the mixture was left standing for 60 min. A time-resolved fluorescence (excitation 320 nm, emission 615 nm, 665 nm) was measured by Envision (PerkinElmer). The LSD1 inhibitory rate (%) of the test compound was calculated by the following formula. inhibitory rate (%)=(1−(test compound count−blank)÷(control−blank)×100
The count of the LSD1 enzyme reaction mixture under compound non-addition conditions is indicated as control, and the count under compound non-addition and LSD1 enzyme non-addition conditions is indicated as blank.

Another test has as its target T2, MAO-A (Homo sapiens, UniProt P21397).
T2 construct: purchased Sigma-Aldrich Co. LLC
T2 sequence (P21397 1-527): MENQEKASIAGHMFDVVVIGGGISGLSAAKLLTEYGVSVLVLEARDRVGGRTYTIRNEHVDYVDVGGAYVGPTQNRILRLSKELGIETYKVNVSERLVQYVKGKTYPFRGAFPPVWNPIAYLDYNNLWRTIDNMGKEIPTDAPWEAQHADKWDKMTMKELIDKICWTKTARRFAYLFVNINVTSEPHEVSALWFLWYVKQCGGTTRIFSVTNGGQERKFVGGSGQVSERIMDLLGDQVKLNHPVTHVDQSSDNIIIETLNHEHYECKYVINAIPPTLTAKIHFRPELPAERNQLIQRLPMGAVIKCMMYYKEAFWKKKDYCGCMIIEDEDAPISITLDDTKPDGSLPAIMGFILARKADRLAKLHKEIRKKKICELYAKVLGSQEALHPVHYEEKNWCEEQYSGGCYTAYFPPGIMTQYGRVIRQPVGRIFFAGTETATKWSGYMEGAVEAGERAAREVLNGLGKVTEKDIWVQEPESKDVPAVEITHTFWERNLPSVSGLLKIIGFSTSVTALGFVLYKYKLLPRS
Description: Measurement of MAO-A inhibitory activity (MAO-Glo Assay). As for the experimental part:
(1) Measurement of MAO-A Inhibitory Activity
The MAO-A inhibitory activity evaluation described below followed the protocol of MAO-Glo (registered trademark) Assay of Promega KK.
(§1) A test compound dissolved in 4% DMSO was added by 12.5 μL to 25 μL reaction solution (100 mM HEPES (pH 7.5), 5% glycerol) containing 400 ng of MAO-A enzyme (Sigma-Aldrich Co. LLC.), and the mixture was reacted at room temperature for 10 min. MAO substrate (Promega KK) (160 μM) was added by 12.5 μL to start the reaction. After reaction at room temperature for 60 min, Luciferine detection reagent (Promega KK) (50 μL) was added to terminate the reaction. After reaction at room temperature for 20 min with stirring, the luminescence was measured by Envision (PerkinElmer). The MAO-A inhibitory rate (%) of the test compound was calculated by the following formula. inhibitory rate (%)=(1−(test compound count−blank)÷(control−blank)×100
The count of the MAO-A enzyme reaction mixture under compound non-addition conditions is indicated as control, and the count under compound non-addition and MAO-A enzyme non-addition conditions is indicated as blank.

For another test, the target named is T3, MAO-B (Homo sapiens, UniProt P27338).
T3 construct: purchased Sigma-Aldrich Co. LLC
T3 sequence (P27338 1-520): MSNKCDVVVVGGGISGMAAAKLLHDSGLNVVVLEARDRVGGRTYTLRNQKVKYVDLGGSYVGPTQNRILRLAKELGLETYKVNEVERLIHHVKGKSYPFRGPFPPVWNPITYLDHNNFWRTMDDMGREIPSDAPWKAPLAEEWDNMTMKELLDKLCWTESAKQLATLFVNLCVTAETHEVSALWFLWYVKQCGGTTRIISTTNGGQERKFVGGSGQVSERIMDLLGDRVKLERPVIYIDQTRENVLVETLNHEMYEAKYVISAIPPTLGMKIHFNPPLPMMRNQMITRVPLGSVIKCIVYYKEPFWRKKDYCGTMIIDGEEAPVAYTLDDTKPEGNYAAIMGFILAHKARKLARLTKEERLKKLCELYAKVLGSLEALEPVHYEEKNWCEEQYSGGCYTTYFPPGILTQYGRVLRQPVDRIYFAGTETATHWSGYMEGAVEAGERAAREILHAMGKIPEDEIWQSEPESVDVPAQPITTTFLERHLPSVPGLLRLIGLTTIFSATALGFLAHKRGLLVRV
Nature of the test: Measurement of MAO-B inhibitory activity (MAO-Glo Assay). As for the experimental part: (2) Measurement of MAO-B Inhibitory Activity
The MAO-B inhibitory activity evaluation described below followed the protocol of MAO-Glo (registered trademark) Assay of Promega KK.
as §1, with “glycerol, 10% DMSO)” for “glycerol)”, “MAO-B” for “MAO-A”, “(16” for “(160”
The count of the MAO-B enzyme reaction mixture under compound non-addition conditions is indicated as control, and the count under compound non-addition and MAO-B enzyme non-addition conditions is indicated as blank.

As to `O=C(Nc1ccc([C@@H]2C[C@H]2NCc2ccccc2)cc1)c1ccccc1` (relative stereo) [Example 1, N-{4-[trans-2-(benzylamino)cyclopropyl]phenyl}benzamide], the IC50 on human LSD1(171-852) is less than 0.1 µM; against MAO-A it was 3.8 µM; against MAO-B, 9.7 µM.
As to `CCCCCCCCN[C@@H]1C[C@H]1c1ccc(NC(=O)c2ccccc2)cc1` (relative stereo) [Example 2, N-{4-[trans-2-(octylamino)cyclopropyl]phenyl}benzamide], the figures for the IC50 on human LSD1(171-852), on MAO-A and against MAO-B were 0.2 µM, 9.3 µM and greater than 10 µM, respectively.
For `O=C(Nc1ccc([C@@H]2C[C@H]2NCc2ccccc2)cc1)c1cccc(Br)c1` (relative stereo) [Example 3, N-{4-[trans-2-(benzylamino)cyclopropyl]phenyl}-3-bromobenzamide], the IC50 was less than 0.1 µM on human LSD1(171-852), 4.4 µM against MAO-A and 9 µM against MAO-B.
`CCCCCCCCN[C@@H]1C[C@H]1c1ccc(NC(=O)c2cccc(Br)c2)cc1` (relative stereo) [Example 4, 3-bromo-N-{4-[trans-2-(octylamino)cyclopropyl]phenyl}benzamide]: the IC50 at human LSD1(171-852) is 0.24 µM; against MAO-A, greater than 10 µM; on MAO-B, greater than 10 µM.
Consider `CN1CCC(N[C@@H]2C[C@H]2c2ccc(NC(=O)c3cccc(Br)c3)cc2)CC1` (relative stereo) [Example 5, 3-bromo-N-(4-{trans-2-[(1-methylpiperidin-4-yl)amino]cyclopropyl}phenyl)benzamide], for which the half-maximal inhibitory concentration (IC50) on human LSD1(171-852) was less than 0.1 µM; on MAO-A, 7.7 µM; on MAO-B it was greater than 10 µM.
The matching figures for `COc1ccc(CN[C@@H]2C[C@H]2c2ccc(NC(=O)c3cccc(Br)c3)cc2)cc1OC` (relative stereo) [Example 6, 3-bromo-N-(4-{trans-2-[(3,4-dimethoxybenzyl)amino]cyclopropyl}phenyl)benzamide]: less than 0.1 µM, greater than 10 µM and greater than 10 µM.
In the same order, the values of `Cc1cccc(C(=O)Nc2ccc([C@@H]3C[C@H]3NCc3ccccc3)cc2)c1` (relative stereo) [Example 7, N-{4-[trans-2-(benzylamino)cyclopropyl]phenyl}-3-methylbenzamide] are less than 0.1 µM, 5.6 µM and greater than 10 µM.
In the same order, the values of `O=C(Nc1ccc([C@@H]2C[C@H]2NCc2ccccc2)cc1)c1cccc(C(F)(F)F)c1` (relative stereo) [Example 8, N-{4-[trans-2-(benzylamino)cyclopropyl]phenyl}-3-(trifluoromethyl)benzamide] are less than 0.1 µM, 5.8 µM and greater than 10 µM.
With `CC(C)(C)c1cccc(C(=O)Nc2ccc([C@@H]3C[C@H]3NCc3ccccc3)cc2)c1` (relative stereo) [Example 9, N-{4-[trans-2-(benzylamino)cyclopropyl]phenyl}-3-tert-butylbenzamide], the IC50 is 0.28 µM at human LSD1(171-852), greater than 10 µM against MAO-A and greater than 10 µM on MAO-B.
Take `O=C(Nc1ccc([C@@H]2C[C@H]2NCc2ccccc2)cc1)c1cccc(Oc2ccccc2)c1` (relative stereo) [Example 10, N-{4-[trans-2-(benzylamino)cyclopropyl]phenyl}-3-phenoxybenzamide]: the results for the IC50 at human LSD1(171-852), on MAO-A and on MAO-B were 0.14 µM, 3.3 µM and greater than 10 µM, respectively.
For `O=C(Nc1ccc([C@@H]2C[C@H]2NCc2ccccc2)cc1)c1cccc(OCc2ccccc2)c1` (relative stereo) [Example 11, N-{4-[trans-2-(benzylamino)cyclopropyl]phenyl}-3-(benzyloxy)benzamide hydrochloride], the IC50 at human LSD1(171-852) was 0.15 µM; against MAO-A, 2.4 µM; on MAO-B, greater than 10 µM.
In the same order, the values of `O=C(Nc1ccc([C@@H]2C[C@H]2NCc2cccnc2)cc1)c1ccccc1` (relative stereo) [Example 12, N-(4-{trans-2-[(pyridin-3-ylmethyl)amino]cyclopropyl}phenyl)-benzamide bis(trifluoroacetate)] are less than 0.1 µM, 4.7 µM and greater than 10 µM.
Turning to `O=C(Nc1ccc([C@@H]2C[C@H]2NCC2CC2)cc1)c1cc(C(F)(F)F)ccc1F` (relative stereo) [Example 73, N-(4-{trans-2-[(cyclopropylmethyl)amino]cyclopropyl}phenyl)-2-fluoro-5-(trifluoromethyl)benzamide hydrochloride], the IC50 on human LSD1(171-852) was less than 0.1 µM; against MAO-B, 8.1 µM.
Regarding `Cn1cc(C(=O)Nc2ccc([C@@H]3C[C@H]3NCC3CC3)cc2)cn1` (relative stereo) [Example 163, N-(4-{trans-2-[(cyclopropylmethyl)amino]cyclopropyl}phenyl)-1-methyl-1H-pyrazole-4-carboxamide hydrochloride], the 50% inhibitory concentration (IC50) on MAO-A and against MAO-B was greater than 10 µM in each case.
Turning to `O=C(Nc1ccc([C@H]2C[C@@H]2NCC2CC2)cc1)c1ccc(-c2ccccc2)cc1` (single isomer, unassigned) [Example 165, N-(4-{(1R,2S) or (1S,2R)-2-[(cyclopropylmethyl)amino]cyclopropyl}phenyl)biphenyl-4-carboxamide hydrochloride], the IC50 against MAO-A and at MAO-B was greater than 10 µM throughout.
In the case of `O=C(Nc1ccc([C@@H]2C[C@H]2NCC2CC2)cc1)c1ccc(-c2ccccc2)cc1` (single isomer, unassigned) [Example 166, N-(4-{(1S,2R) or (1R,2S)-2-[(cyclopropylmethyl)amino]cyclopropyl}phenyl)biphenyl-4-carboxamide hydrochloride], the IC50 against MAO-A and at MAO-B was greater than 10 µM each time.
